Assay results as given in US9453050B2, “Compositions for treating glioma” (GLIA SP Z.O.O., priority 2011, dated 2016).

Assays:
[1] = tested on: rat primary microglia cultures; assay: GCM-induced amoeboid transformation of microglia (F-actin staining); type: cell-based; conditions: pre-incubation with 500 μM peptide; FIG. 6A
Experimental: Cell culture and treatment. Primary cultures of rat microglia were prepared from 1-day-old Wistar rat pups as described previously (Zawadzka and Kaminska 2003). Briefly, cells were isolated from cerebral cortices by trypsination, mechanically dissociated and plated at the density of 3×10^5 cells/cm^2 in Dulbecco's modified Eagle medium (with Glutamax and high-glucose formula 4.5 g/L, Gibco) supplemented with heat-inactivated 10% fetal bovine serum (Gibco), 100 U/mL penicillin, and 0.1 mg/mL streptomycin on poly-L-lysine coated culture 75 cm^2 flasks. Murine pEGFP-GL261 glioma cells were cultured in DMEM with 10% FBS and antibiotics (50 U/ml penicillin, 50 μg/ml streptomycin). Primary cultures of astrocytes were prepared from cerebral cortex of 2-day-old C57BL/6 newborn mice. Astrocytes were cultured in DMEM media with high glucose supplemented with 10% FBS, 100 U/ml penicillin and 100 μg/ml streptomycin. Culture medium was changed after 3 days and then twice a week. Cell cultures were maintained at 37° C. in humidified 5% CO2/95% air incubator (Heraeus, Hanau, Germany). […]
Cells were washed with a phosphate buffer saline (PBS) and fixed with 2% paraformaldehyde at indicated time periods. […] Morphological alterations were monitored by fluorescent microscopy with excitation 450-490 nm, recorded with 20× objective. […]

microglia cells [2] = assay: Real-Time PCR of M2 phenotype markers and iNOS in microglia treated with U87-MG GCM plus peptides; type: cell-based, mouse; conditions: 500 μM peptide in GCM, 6 h
Experimental: (§1) Total RNA (2 μg) isolated from microglia cultures untreated or treated for 6 h with LPS or G-CM was used as a template to generate cDNA. As endogenous control 18S (Hs99999901_s1) rRNA was applied. Gene expression quantification was performed using the Applied Biosystem TaqMan® The real time amplifications were performed in duplicates in a 20 μl reaction volume containing 2×SYBR PCR MasterMix and a set of primers designed using PRIMER EXPRESS software for the following genes: iNOS, COX-2, II1beta, TNF alpha, MMP-2, MMP-9, MMP-14, Arg1, Id1 and c-Myc. The amount of target mRNA was first normalized to the 18S RNA expression level and then to a control. Data were analysed by the Relative Quantification (^ΔΔCt) method using 7500 System SDS software (Applied Biosystems). The expression of each product was normalized to 18S rRNA and is shown as the ratio of the target gene to 18S gene expression, calculated by 2^−ΔΔCt.
U87-MG human glioma cells were plated on 100 mm culture dishes in a total volume of 8 mL culture medium for 24 h. […]
The expression level of genes that were previously identified as markers of the M2 microglia/macrophage phenotype (see FIG. 4.) such as: Arg1, Id1, c-Myc and MMP-14 was determined using Real-Time PCR. Likewise, the expression level of iNOS was determined to evaluate induction of an immune response. […]

[3] = tested on: rat primary microglia cultures; assay: Phagocytosis of fluorescent beads by GCM-treated microglia; type: cell-based; conditions: 500 μM peptide; FIG. 6B
Experimental: Microglia cells (1×10^5) were seeded on 24-wells plates and after 24 hours cells were transfected with 25 nM control non-targeting siRNA, and siRNA to αv or β3, or two siRNA together (ON-TARGET siRNA, Dharmacon) using 0.25 μl of DharmaFECT 3 transfection reagent in 0.5 ml culture medium. After 48 h the transfection medium was replaced by G-CM and phagocytic properties of microglia were determined as described. To estimate the silencing efficiency cells were removed from the culture plates by trypsynization and suspended in MACS buffer (PBS, 2 mM EDTA, 0.5% BSA) at final concentration 1×10^5 cells/100 μl. Cell surface expression of the integrins was analysed using primary antibodies to αv or β3 (BD Biosciences) and anti-mouse-Alexa Fluor 647 secondary antibody (Invitrogen). The fluorescent intensity of the labelled cells was analysed with FACSCalibur (Beckton Dickinson). The mean fluorescent intensity was compared with the control siRNA and expressed as the relative change to the control condition for each experimental siRNA.
Phagocytic properties of microglia were determined by incubation of cells with 2 μm fluorescent latex beads (Sigma-Aldrich, Saint Louis, Mo., USA) for 90 min. […] The percentage of cells with none/low (<2 beads per cell), medium (≧2<10) or high (≧10 beads per cell) phagocytic activity was counted. […]

[4] = tested on: phosphorylated FAK, Akt and ERK in microglia cells; assay: Immunoblotting of phosphorylated kinases in GCM-treated microglia; type: cell-based, rat; conditions: pre-treatment with peptide; FIG. 6E
Experimental: Whole cell lysates were prepared by scraping the cells into the buffer containing phosphatase and protease inhibitors (20 mM Tris HCl, pH6.8, 137 mM sodium chloride, 25 mM β-glycerophosphate, 2 mM sodium pyrophosphate, 2 mM EDTA, 1 mM sodium orthovanadate, 1% Triton X-100, 10% glycerol, 5 μg/ml leupeptin, 5 μg/ml aprotinin, 2 mM benzamidine, 0.5 mM DTT, 1 mM PMSF). The protein concentration was determined with the Bradford assay (Sigma-Aldrich, Saint Louis, Mo., USA). Protein extracts were separated on SDS-PAGE before electrophoretic transfer onto a nitrocellulose membrane (Amersham Biosciences, Germany) as described (Ellert-Miklaszewska et al. 2005; Sliwa et al. 2007). After blocking with 5% non-fat milk in TBS-T (Tris-buffered saline pH 7.6/0.15% Tween 20) the membranes were incubated with primary antibodies diluted in a blocking buffer overnight and then with relevant secondary antibodies for one hour. Antibodies recognizing phosphorylated and total forms of p38, ERK1/2, JNK, STAT1, STAT3, STATS, AKT, FAK and IκB as well as Cox-2 (all diluted 1:1000) and horseradish peroxidase-conjugated anti-rabbit IgG (diluted 1:2000) were purchased from Cell Signaling Technology (Beverly, Mass., USA); iNOS (diluted 1:2000) from BD Biosciences (Bedford, Mass., USA). Immunocomplexes were visualized by using ECL (Amersham). […]

[5] = tested on: rat primary microglia cultures; assay: Scratch assay of microglia motility; type: cell-based; conditions: GCM with RGD inhibitor; FIG. 6C
Experimental: Microglia were platted on a 35 mm Petri dish at the density of 1.5×10^6 cells and after 48 hours the cultures were gently scratched using a pipette tip and microglia cells were cultured under various experimental conditions (control, 100 ng/mL LPS or G-CM). Motility of microglia cells was determined 3 hours after treatment. Migrating cells were visualized by phase-contrast microscopy.
Using the rat lactadherin amino acid sequence, a 7-aa RGD-containing peptide (RGD) was designed as a competitive inhibitor (set forth in SEQ ID NO: 18). A scrambled sequence peptide was used as a control (SCR). Pre-incubation with the chemically synthesized 500 μM RGD peptide, but not with the SCR peptide, prevented transformation of microglia into amoeboid cells following GCM induction (amoeboid cells indicated with arrows) (FIG. 6A).

microglia cells [6] = assay: qPCR of GCM-induced genes in microglia exposed to GCM of shRNA-expressing C6 glioma cells; type: cell-based, rat; conditions: FIG. 7B
Experimental: as §1
To investigate the role of identified proteins in GCM-induced activation of microglia cells, stable C6 glioma cell lines expressing shRNAs specific to osteopontin (shSPP1), or a control, negative shRNA (shNeg) were generated. Silencing efficiency was approximately 98.5% (FIGS. 7A and C). Silencing of […] inhibited GCM-induced expression c-Myc and smad7 in microglia cells (FIG. 7B). […]

In the case of “DQIGFRT [SCR peptide, reference compound]”, the “transformation of microglia into amoeboid cells following GCM induction” value [1] is reported as “not”.

“DGRGDSV (SYNTHTIC PEPTIDE) [OPN inhibiting peptide]” was tested, and the “Id1 expression level (M2 marker)” value (microglia cells [2]; FIG. 17B-C) was “down-regulated” and the “Arg1 expression level (M2 marker)” value (microglia cells [2]; vs control peptide, FIG. 17A) was “down-regulated”.

For TQRGDIF [RGD peptide], the GCM-induced phagocytosis [3] was “completely blocked”, the “activation of phosphorylated FAK, Akt and ERK kinases by GCM” value [4] was “abolished” and the “microglia migration in a scratch assay” value [5] was “completely blocked”. The “transformation of microglia into amoeboid cells following GCM induction” value [1] was “prevented”.

B1: lactadherin shRNA: shRNA to rat lactadherin, oligonucleotides SEQ ID NO: 25 and 26, stably expressed in C6 glioma cells (nucleic acid)
chain 1: GATCCGGATGAAAGCGGAACCGGATTCAAGAGATCCGGTTCCGCTTTCATCCTGTTTTTTGGAAA
chain 2: AGCTTTTCCAAAAAACAGGATGAAAGCGGAACCGGATCTCTTGAATCCGGTTCCGCTTTCATCCG
modifications: the letters are possibly those of the target site
In the case of B1, the “GCM-induced expression c-Myc and smad7 in microglia cells” value (microglia cells [6]) is reported as “inhibited”.
